Converted amounts (≈) assume the structure as drawn. Like-named read-outs stand apart in the source and are kept apart here.
Assays:
[1] = system: Vero green monkey-derived epithelial kidney cells; assay: Mammalian cytotoxicity in Vero cells; assay type: cell-based; conditions: for IC50: Chlorocebus sabaeus
[2] = system: M.tb strain H37Rv; assay: MIC against M.tb H37Rv under aerobic (replicating; MABA) conditions; assay type: cell-based, Mycobacterium tuberculosis; conditions: for MIC: Mycobacterium tuberculosis; for MIC MABA: MIC90, Table 1
[3] = system: M.tb strain H37Rv; assay: MIC against M.tb H37Rv under non-replicating (LORA) conditions; conditions: for MIC LORA: MIC90, Table 1
[4] = MIC90, Table 1, read-out: MIC MABA

| Compound | IC50 ([1]; Table 1) | MIC [2, 4] | MIC LORA [3] | MIC MABA [2] | IC50 ([1]; Table 2) | MIC ([2]; MIC90, Table 2, read-out: MIC (µg/mL) MABA) | MIC (µg/mL) LORA ([3]; MIC90, Table 2) | IC50 VERO ([1]; Table 1) |
| --- | --- | --- | --- | --- | --- | --- | --- | --- |
| CSc1ccc(N2CCN(C)CC2)c2c1CCN(C(=O)Nc1ccc(-c3cc(C(F)(F)F)cc(C(F)(F)F)c3)cn1)C2 [Compound 39, N-(5-(3,5-Bis(trifluoromethyl)phenyl)pyridin-2-yl)-8-(4-methylpiperazin-1-yl)-5-(methylthio)-3,4-dihydroisoquinoline-2(1H)-carboxamide] | 20 µg/mL (≈ 32.8 µM) | 3.6 µg/mL (≈ 5.91 µM) | 4.0 µg/mL (≈ 6.56 µM) | – | – | – | – | – |
| Cc1cc(Cl)ccc1-c1ccc(NC(=O)N2CCc3c(Cc4ccccc4)ccc(N4CCN(C)CC4)c3C2)nc1 [Compound 29, 5-Benzyl-N-(5-(4-chloro-2-methylphenyl)pyridin-2-yl)-8-(4-methylpiperazin-1-yl)-3,4-dihydroisoquinoline-2(1H)-carboxamide] | 11 µg/mL (≈ 19.4 µM) | 1.8 µg/mL (≈ 3.18 µM) | 1.5 µg/mL (≈ 2.65 µM) | – | – | – | – | – |
| 2-((5-(2,4-Dichlorophenyl)pyridin-2-yl)methyl)-8-(4-methylpiperazin-1-yl)-1,2,3,4-tetrahydroisoquinoline [Compound 11] | – | – | 11 µg/mL | 3.6 µg/mL | – | – | – | – |
| Cc1ccc(N2CCN(C)CC2)c2c1CCN(C(=O)Nc1ccc(-c3ccc(Cl)cc3Cl)cn1)C2 [Compound 25, N-(5-(2,4-Dichlorophenyl)pyridin-2-yl)-5-methyl-8-(4-methylpiperazin-1-yl)-3,4-dihydroisoquinoline-2(1H)-carboxamide] | 12 µg/mL (≈ 23.5 µM) | 1.95 µg/mL (≈ 3.82 µM) | 1.99 µg/mL (≈ 3.9 µM) | – | – | – | – | – |
| Cc1cc(Cl)ccc1-c1ccc(NC(=O)N2CCc3cccc(N4CCN(C)CC4)c3C2)nc1 [Compound 24, N-(5-(4-Chloro-2-methylphenyl)pyridin-2-yl)-8-(4-methylpiperazin-1-yl)-3,4-dihydroisoquinoline-2(1H)-carboxamide] | 11 µg/mL (≈ 23.1 µM) | 6.2 µg/mL (≈ 13 µM) | 7.7 µg/mL (≈ 16.2 µM) | – | – | – | – | – |
| Cc1cc(Cl)ccc1-c1ccc(CN2CCc3c(C)ccc(N4CCOCC4)c3C2)nc1 [Compound 53, 4-(2-((5-(4-Chloro-2-methylphenyl)pyridin-2-yl)methyl)-5-methyl-1,2,3,4-tetrahydroisoquinolin-8-yl)morpholine] | – | – | – | – | > 32 µg/mL | 7.8 µg/mL (≈ 17.4 µM) | 12 µg/mL (≈ 26.8 µM) | – |
| CN1CCN(c2cccc3c2CN(C(=O)Cc2ccc(-c4ccccc4)cn2)CC3)CC1 [Compound 44, 1-(8-(4-Methylpiperazin-1-yl)-3,4-dihydroisoquinolin-2(1H)-yl)-2-(5-phenylpyridin-2-yl)ethan-1-one] | > 32 µg/mL | > 32 µg/mL | >32 µg/mL | – | – | – | – | – |
| Cc1cc(Cl)ccc1-c1ccc(CN2CCc3c(F)ccc(N4CCN(C)CC4)c3C2)nc1 [Compound 15, 2-((5-(4-Chloro-2-methylphenyl)pyridin-2-yl)methyl)-8-(4-methylpiperazin-1-yl)-5-fluoro-1,2,3,4-tetrahydroisoquinoline] | 24 µg/mL (≈ 51.6 µM) | 3.8 µg/mL (≈ 8.17 µM) | 6.1 µg/mL (≈ 13.1 µM) | – | – | – | – | – |
| CN1CCN(c2cccc3c2CN(C(=O)Cc2ccc(-c4cccc(Cl)c4)cn2)CC3)CC1 [Compound 45, 2-(5-(3-Chlorophenyl)pyridin-2-yl)-1-(8-(4-methylpiperazin-1-yl)-3,4-dihydroisoquinolin-2(1H)-yl)ethan-1-one] | 25 µg/mL (≈ 54.2 µM) | 15 µg/mL (≈ 32.5 µM) | 21.7 µg/mL (≈ 47.1 µM) | – | – | – | – | – |
| 2-((5-(4-Chlorophenyl)pyridin-2-yl)methyl)-8-(4-methoxypiperazin-1-yl)-5-methyl-1,2,3,4-tetrahydroisoquinoline [Compound 13] | – | – | 6.1 µg/mL | 1.8 µg/mL | – | – | – | 12 µg/mL |
| CN1CCN(c2ccc(F)c3c2CN(C(=O)Nc2ccc(-c4ccc(Cl)c(C(F)(F)F)c4)cn2)CC3)CC1 [Compound 41, N-(5-(4-Chloro-3-(trifluoromethyl)phenyl)pyridin-2-yl)-5-fluoro-8-(4-methylpiperazin-1-yl)-3,4-dihydroisoquinoline-2(1H)-carboxamide] | 10 µg/mL (≈ 18.2 µM) | 1.4 µg/mL (≈ 2.55 µM) | 2.9 µg/mL (≈ 5.29 µM) | – | – | – | – | – |

From article PMC7721589, “Synthesis and structure-activity relationships for tetrahydroisoquinoline-based inhibitors of Mycobacterium tuberculosis” (Bioorganic & Medicinal Chemistry, 2020)
